Experimental data published in PubChem BioAssay (NCI).
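Grown in 96-well plates, cells were treated for 48 hours with each compound at five concentrations. Insufficient inhibition: endpoint recorded as highest concentration tested. At the GI50, growth is halved. TGI: total growth inhibition.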 *1 amine or outer side, *2 acyl side, *3 side chain or, on linkers, in order; H or OH if unused. Where a SMILES comes first, the peptide text is derived from it. Bridges are numbered along the chain shown (N, C = ends). [ ]: non-standard residue; d: D form. X35 = CC[C@H](C)[C@@H](N[*:1])[C@@H](O)CC(=O)O[C@H](C(=O)[C@H](C)C(=O)[*:2])C(C)C; NMeY = CN[C@@H](Cc1ccc(O)cc1)C(=O)O

What was measured:
Test in all cases: inhibition of tumour cell growth, NCI panel, 48 h
SK-MEL-5 melanoma = system: SK-MEL-5 melanoma
NCI-H226 lung = system: NCI-H226 lung
HOP-62 NSCLC = system: HOP-62 NSCLC
HL-60(TB) leukemia = system: HL-60(TB) leukemia
RPMI-8226 leukemia = system: RPMI-8226 leukemia
TK-10 renal = system: TK-10 renal
CCRF-CEM leukemia = system: CCRF-CEM leukemia
OVCAR-4 ovarian = system: OVCAR-4 ovarian
OVCAR-5 ovarian = system: OVCAR-5 ovarian
NCI/ADR-RES ovarian = system: NCI/ADR-RES ovarian
MDA-MB-231 breast = system: MDA-MB-231 breast
LOX IMVI melanoma = system: LOX IMVI melanoma
T-47D breast = system: T-47D breast

Compound	TGI (SK-MEL-5 melanoma) [µM]	TGI (NCI-H226 lung) [µM]	TGI (HOP-62 NSCLC) [µM]	TGI (HL-60(TB) leukemia) [µM]	TGI (RPMI-8226 leukemia) [µM]	TGI (TK-10 renal) [µM]	TGI (CCRF-CEM leukemia) [µM]	TGI (OVCAR-4 ovarian) [µM]	TGI (OVCAR-5 ovarian) [µM]	TGI (NCI/ADR-RES ovarian) [µM]	TGI (MDA-MB-231 breast) [µM]	TGI (LOX IMVI melanoma) [µM]	TGI (T-47D breast) [µM]	GI50 (OVCAR-5 ovarian) [µM]
Cc1ccc(Nc2cccc3c2C(=O)c2cccc(Nc4ccc(C)cc4S(=O)(=O)O)c2C3=O)c(S(=O)(=O)O)c1	> 100	> 100	> 100	> 100	> 100	> 100	> 100	> 100						
CCOC(=O)c1ncn(CCc2ccc(Cl)cc2)c1C	> 100	> 100	> 100	> 100	> 100	> 100	> 100	> 100	> 100	> 100	> 100	> 100		
O=C(OCc1ccccc1)C(Cc1ccc(OCc2ccccc2)cn1)NC(=O)C(F)(F)F (stereo unspecified)	> 100	> 100	> 100	> 100	> 100	> 100		> 100	> 100	> 100	> 100	> 100		
O=C(Sc1c(-c2ccccc2)c(=O)n(-c2ccccc2)c(=S)n1-c1ccccc1)c1ccccc1	> 100	> 100	> 100	> 100	> 100	> 100	76.3	> 100	> 100	> 100		> 100	> 100	
CC[C@H](C)[C@H]1NC(=O)[C@@H](N)[C@@H](C)OC(=O)[C@H](Cc2ccc(OC)cc2)N(C)C(=O)[C@@H]2CCCN2C(=O)[C@H](CC(C)C)NC(=O)[C@@H](C)C(=O)[C@H](C(C)C)OC(=O)C[C@@H]1O (H-T[X35]LP[NMeY](Me); ester 1-C)	54.9	> 100	> 100	> 100	> 100	> 100	> 100	> 100	> 100	> 100		> 100		
C=C(C)C1CC[C@@](C)(O)[C@H](C#N)C1 (stereo partly specified)	> 100	> 100	> 100	> 100	> 100	> 100	> 100	> 100	> 100		> 100	> 100	> 100	
C/C=C/c1cc2c(cc1O)CC[C@@H]1[C@@H]2CC[C@]2(C)[C@@H](O)CC[C@@H]12	14.2	1.96	16.3		> 82.6	27.3	8.44	27.2	25.4		4.94	24.3	41.7	
CC[C@H](C)[C@@H]([C@@H](CC(=O)N1CCC[C@H]1[C@H](OC)[C@@H](C)C(=O)NCCc1ccccc1)OC)N(C)C(=O)C(NC(=O)[C@H](C(C)C)N(C)C)C(C)C (stereo partly specified)		0.00784	3.02			> 10		> 10	> 10	> 10	0.00271	> 10	> 10	0.000592
C=C(Cl)/C(=C\Cl)CCC(Cl)C(C)C (stereo unspecified) (tested in a mixture with another compound)	27.6	47.9	32.6	> 100		33.9	> 100	31.2	34.8	84.4	30.8	3.67		
O=c1[nH]c2c(c(=O)[nH]1)SC(c1ccccc1)C2 (stereo unspecified)	> 100	> 100	> 100	> 100	> 100		> 100	> 100	> 100	> 100	> 100	> 100		
COc1cc(S(=O)(=O)Nc2ccc(-c3csc(N4C(=O)C(C)SC4c4cccs4)n3)cc2)ccc1Cl (stereo unspecified)	> 100	> 100	> 100	41.7	> 100		52.2		> 100	> 100		96.7	27.3	
CN(C)c1ccc(C=Nc2ccc(-c3nc4ccccc4s3)cc2)cc1	44.8	> 100	82.8	0.525	> 100	75.8	10.9	> 100	> 100	92		94.8	73.9	
COc1cccc(NC(=O)CSc2nnc(Cc3ccccc3)o2)c1	> 100	> 100	> 100	> 100	> 100	> 100	> 100	> 100	> 100			> 100		
Cc1cc(C)c(NS(=O)c2cccc(C(F)(F)F)c2)c(C)c1 (stereo unspecified)		> 100	> 100	> 100	> 100	> 100	> 100		> 100	> 100			> 100	
C=C1CC[C@@H]2C13[C@@H]1[C@H](CC(=O)[C@@]23C)C1(C)C (stereo partly specified)	> 100	> 100	> 100	> 100	> 100	> 100		> 100	> 100	> 100		> 100	> 100	
